These results are taken from patent publication US8288315B2, “Fungicide mixtures” (BASF SE, priority 2007, dated 2012).

Molecules are shown by their SMILES.

Assay [1] relates to Puccinia recondita. The experiment in a line: Protective activity against Puccinia recondita on wheat (brown rust of wheat). Conditions: wheat seedlings, sprayed 1 day before inoculation, rated after a further 7 days, efficacy as % of untreated control. The class given is in vivo. The protocol:
(§1) The mixture was then made up with water to 100 ml.
The next day, the treated plants were inoculated with a spore suspension of brown rust of wheat (Puccinia recondita). The plants were then placed in a chamber with high atmospheric humidity (90 to 95%) at 20 to 22° C. for 24 hours. During this time, the spores germinated and the germ tubes penetrated into the leaf tissue. The following day, the test plants were returned to the greenhouse and cultivated at temperatures between 20 and 22° C. and at 65 to 70% relative atmospheric humidity for a further 7 days. The extent of the rust fungus development on the leaves was then determined visually.
(§2) The visually determined percentages of infected leaf areas were converted into efficacies as % of the untreated control:
(§3) The efficacy (E) is calculated as follows using Abbot's formula: E=(1−α/β)·100 • α corresponds to the fungicidal infection of the treated plants in % and • β corresponds to the fungicidal infection of the untreated (control) plants in %
(§4) An efficacy of 0 means that the infection level of the treated plants corresponds to that of the untreated control plants; an efficacy of 100 means that the treated plants are not infected.

The subject of assay [2] is Botrytis cinerea. The assay is described as follows: Activity against gray mold on bell pepper leaves caused by Botrytis cinerea, 1 day protective application. Format: in vivo. Particulars: bell pepper seedlings, sprayed 1 day before inoculation, rated after 5 days, efficacy as % of untreated control. The protocol: as §1
The next day, the treated plants were inoculated with a spore suspension of Botrytis cinerea in a 2% strength biomalt solution. The test plants were then placed in a dark climatized chamber at 22 to 24° C. and high atmospheric humidity. After 5 days, the extent of the fungal infection on the leaves could be determined visually in %.
as §2, §3, §4

Turning to `CC1(C)CCC(Cc2ccc(Cl)cc2)C1(O)Cn1cncn1` (stereo not drawn) [Metconazole, (1RS,5RS;1RS,5SR)-5-(4-chlorobenzyl)-2,2-dimethyl-1-(1H-1,2,4-triazol-1-ylmethyl)cyclopentanol], the “Observed effect (%)” value in assay [1] (0.25 ppm) worked out at 13%; in assay [2] (0.016 ppm) it was 0%.
With `CCCN(CCOc1c(Cl)cc(Cl)cc1Cl)C(=O)n1ccnc1` [Prochloraz, N-propyl-N-[2-(2,4,6-trichlorophenoxy)ethyl]imidazole-1-carboxamide], the “Observed effect (%)” value in assay [1] (4 ppm) and in assay [2] (0.25 ppm) was 0% in each case.
